Several values for one entry are separate records, joined by “and”; a condition that tells them apart may be missing. Equal values may be shown once. Read-outs that look alike come from different tables or passages of the source.
What was measured:
[1] = tested on: Bacillus subtilis NCIM 2724
Method: (§1) Two control stains are used: one having a cellulase activity (Bacillus subtilis NCIM 2724) the other one not having any activity (Escherichia coli BL21). Both strains are cultivated in an LB medium at 30° C. with stirring (240 rpm) for 18 h. For each strain, the culture is centrifuged (2 500 g, 5 min) and the pellet of cells is washed twice in 5 mL of an LB medium (centrifugation at 2 500 g, 5 min). This pellet is used for inoculation at OD=0.005 a culture in an inducing medium (Dubos medium with 2.5 g/L of carboxymethyl-cellulose) containing the fluorogenic substrate 8 and 2.5 μM (B. subtilis NCIM 2724) or 10 μM (E. coli BL21) of sulforhodamine. Both of these cell suspensions are used with perfluorinated oil in order to produce an emulsion consisting of two populations of droplets each containing one of the described suspensions. The blue and red fluorescences of the droplets are measured individually, on a sample of the emulsion, during production (t=0 h) and reinjection after having incubated the emulsion for 24 h at 30° C.
(§2) The graphs a and b, shown in FIG. 5, are two dimensional histograms of the red (in abscissas, RFU) and blue (in ordinates, RFU) fluorescence intensities measured on the emulsion during its production (a) and its reinjection after incubation fro 24 h at 30° C. (b). The population density is illustrated by a color code varying from pink (1 droplet) to red (>1,000 droplets) according to a logarithmic scale.

[2] = tested on: Escherichia coli BL21; details: inactive strain
Method: as §1, §2

[3] = tested on: cellulase; details: substrate 0.25 mM in inducing Dubos medium with carboxymethyl-cellulose; 30° C, 24 h; excitation/emission 388/455 nm
Method: (§3) Different control strains are cultivated in an LB medium at 30° C. with stirring (240 rpm) for 18 h. For each strain, the culture is centrifuged (2,500 g, 5 min) and the pellet of cells is washed twice in 5 mL of LB medium (centrifugation at 2,500 g, 5 min). This pellet is used for inoculating at OD=0.005 a culture in an inducing medium (Dubos medium with 2.5 g/L of carboxymethyl-cellulose) containing the fluorogenic substrate (8 or 10) at 0.25 mM. The culture is incubated at 30° C. without stirring for 24 h. Culture supernatant samples are taken at different incubation times in order to be able to follow the occurrence of cellulase or β-glucosidase activities in the culture medium. The occurrence of these activities is followed by measurement of the fluorescence on the culture supernatants in microplates with excitation and emission wavelengths of 388 nm and 455 nm.

[4] = tested on: β-glucosidase; details: substrate 0.25 mM, phosphate buffer pH 7.5, 30° C, 120 minutes
Method: (§4) The enzymatic kinetics are achieved in a microplate on soluble enzymatic extracts (A, B, C and D) rich in activities of the cellulase and xylanase type. These extracts are diluted 10 times (substrate 18, FIG. 1) or 100 times (substrate 10, 12 and 14, FIG. 2) in a 50 mM phosphate buffer, NaCl 150 mM, pH=7.5. A volume of 20 μL of diluted enzymatic extract is added to 20 μL of fluorogenic substrate (10, 12, 14 or 18) at 0.25 mM in a 50 mM phosphate buffer, NaCl 150 mM, pH=7.5. The kinetics are achieved at 30° C. The enzymatic hydrolysis of the different fluorogenic substrate is followed for 120 minutes by measuring the fluorescence with excitation and emission wavelengths of: 339 nm and 452 nm for the substrates 10, 12 and 14; 375 nm and 510 nm for the substrate 18.

[5] = tested on: β-glucosidase; details: substrate 0.25 mM in inducing Dubos medium with carboxymethyl-cellulose; 30° C, 24 h; excitation/emission 388/455 nm
Method: as §3

[6] = tested on: β-xylosidase; details: extracts diluted 100 times; substrate 0.25 mM; phosphate buffer pH 7.5; 30° C; 120 minutes; excitation/emission 339/452 nm
Method: as §4

[7] = tested on: xylanase; details: extracts diluted 100 times; substrate 0.25 mM; phosphate buffer pH 7.5; 30° C; 120 minutes; excitation/emission 339/452 nm
Method: as §4

O=c1cc(CS(=O)(=O)[O-])c2cc(F)c(O[C@@H]3O[C@H](CO)[C@@H](O[C@@H]4O[C@H](CO)[C@@H](O)[C@H](O)[C@H]4O)[C@H](O)[C@H]3O)c(F)c2o1.[Na+] [substrate 8, sodium β-D-cellobioside 6,8-difluoro-7-hydroxycoumarin-4-methanesulfonate]
change of blue fluorescence of the droplets ([1]; after 24 h of incubation at 30° C, active strain): blue fluorescence significantly increased | detection of an activity of the cellulase type on microorganisms within an emulsion ([1]; emulsion generated by a microfluidic system, 24 h at 30° C): allows detection of an activity of the cellulase type | % of positive droplets ([1]; reinjection (t = 24 h) after incubation at 30° C, active strain, 2.5 μM sulforhodamine, threshold 37.56 RFU blue fluorescence): 27% and 27.61% | change of blue fluorescence of the droplets ([2]; after 24 h of incubation at 30° C): do not have any increase of their blue fluorescence | % of positive droplets ([2]; reinjection (t = 24 h) after incubation at 30° C, 10 μM sulforhodamine, threshold 37.56 RFU blue fluorescence): 0.26% | detection of enzymatic activity of the cellulase type on cultures of microorganisms [3]: allow detection of the enzymatic activities

O=c1cc(CS(=O)(=O)[O-])c2cc(F)c(O[C@@H]3O[C@H](CO)[C@@H](O)[C@H](O)[C@H]3O)c(F)c2o1.[Na+] [substrate 10, sodium β-D-glucoside 6,8-difluoro-7-hydroxycoumarin-4-methanesulfonate]
detection of enzymatic activity of type β-glucosidase by fluorescence ([4]; extracts diluted 100 times, excitation/emission 339/452 nm): allow detection of the enzymatic activities | detection of enzymatic activity of the β-glucosidase type on cultures of microorganisms [5]: allow detection of the enzymatic activities

O=c1cc(CS(=O)(=O)[O-])c2cc(F)c(O[C@@H]3OC[C@@H](O)[C@H](O)[C@H]3O)c(F)c2o1.[Na+] [substrate 12, sodium β-D-xyloside 6,8-difluoro-7-hydroxycoumarin-4-methanesulfonate]
detection of enzymatic activity of type β-xylosidase by fluorescence [6]: allow detection of the enzymatic activities

O=c1cc(CS(=O)(=O)[O-])c2cc(F)c(O[C@@H]3OC[C@@H](O[C@@H]4OC[C@@H](O)[C@H](O)[C@H]4O)[C@H](O)[C@H]3O)c(F)c2o1.[Na+] [substrate 14, sodium β-D-xylobioside 6,8-difluoro-7-hydroxycoumarin-4-methanesulfonate]
detection of enzymatic activity of xylanase type by fluorescence [7]: allow detection of the enzymatic activities

O=c1cc(CS(=O)(=O)[O-])c2c(cc(O[C@@H]3O[C@H](CO)[C@@H](O)[C@H](O)[C@H]3O)c3ccccc32)o1.[Na+] [substrate 18, sodium β-D-glucoside 5,6-benzo-7-hydroxycoumarin-4-methanesulfonate]
detection of enzymatic activity of type β-glucosidase by fluorescence ([4]; extracts diluted 10 times, excitation/emission 375/510 nm): allow detection of the enzymatic activities

From patent publication US20140234884A1, “FLUOROGENIC SUBSTRATES, METHODS OF MAKING THE SUBSTRATES, AND METHODS OF DETECTING GLYCOSIDASE ACTIVITIES” (UNIVERSITE DE STRASBOURG, priority 2010, published 2014)
